# Experimental data as given in US20220409578A1, “FUNCTIONALIZED 1,3-BENZENE DIOLS AND THEIR METHOD OF USE FOR THE TREATMENT OF RADIATION DERMATITIS AND OTHER SKIN DISORDERS” (KANNALIFE SCIENCES, INC., priority 2019, published 2022).
# Assays:
# [1] = type: in vitro ADME, porcine
# Method: Percutaneous absorption (Franz cell). For these studies, porcine ear skin (n=3; 1.5 in^2) obtained from Animal Technologies, Inc. (Tyler, T X) were utilized, Skins were thawed for 30 min at room temperature. After thawing, skin was placed over receptor compartment of the unjacketed Franz cell chamber with stir bar obtained from Permegear and covered with the donor compartment. The clamp was then placed to hold the cell together. The receptor compartment was filled with 12 mL of 1M PBS buffer+4% BSA and 0.1% sodium azide through the sampling port using a syringe. Franz cell was placed on a stir plate at ˜600 RPM and heated till the buffer reached 37° C. 400 μL of 3H—H2O (˜1.5 million counts) was then placed on the membrane for 5 min. […] After 30 min, 250 μL of the receptor buffer was removed in triplicate and counted to check the integrity of the skin (>0.4 μl/cm^2 was considered acceptable). […] Extraction and homogenization were performed to quantify the amount of formulation remaining in the epidermis and dermis. […] The concentration of KLS-13022 was measured by liquid chromatography coupled with tandem mass spectrometry (LC/MS/MS). […] The analytes and internal standard were detected using an Applied Biosystem API-3000 mass spectrometer equipped with a Turbo-Ion Spray (Electrospray, ESI) source that was operated in multiple reaction monitoring mode (MRM) under positive ion mode.
# IL-6 = IL-6 release, UV-A-induced photoaging in human dermal fibroblasts (ELISA); type: cell-based; conditions: UV-A 12.5 J/cm^2 (315-400 nm)
# Method: Primary dermal fibroblasts cells of human origin were cultured in vitro using standard conditions (37° C., 95% v/v air, 5% v/v CO2). Primary dermal fibroblasts from neonatal donor were used from human origin and purchased from Thermo-Fisher (Cat No. C0045C). […] Cells were cultured until the second passage and then acclimated for 48 hours before UVA irradiation and dosing procedures conducted in 24-well plates. On Day 3, test materials were dosed to cell culture media and pre-incubated for 6 hours. Treatment media was then removed and replaced with phosphate buffer saline (PBS) without test materials and Ultraviolet-A (UV-A) was irradiated at 12.5 J/cm^2 using FS-20/T-12 bulbs (315-400 nm). […]
# An Interleukin-6 assay was used to evaluate the anti-inflammatory activity of KLS-13022 formulated in ethanol and applied in vitro to cells irradiated with Ultraviolet-A (UV-A)-induced photoaging (Wlascheck et al., 1994) in human dermal fibroblasts (HDFs). […] IL-6 levels were quantified by enzyme-linked immunosorbent assay (ELISA) after inflammatory induction and incubation with test and control materials. Interleukin-6 (IL-6) levels were assessed from cell culture media supernatants using BD Biosciences OptEIA™ Human IL-6 ELISA Set kit (Cat. No. 555220). according to the manufacture's specifications. […]
# CXCL5 = CXCL5 chemokine secretion by UV-B irradiated NHEKs (ELISA); type: cell-based, human
# Method: Normal human epidermal keratinocytes cultures were utilized to measure the release of proinflammatory cytokines and chemokines. Primary epidermal keratinocytes from neonatal donors were used from human origin and purchased from Thermo-Fisher (Cat No. A13401). […] Cells were cultured until the second passage and then acclimated for 48 hours more before UV-B irradiation. Dosing procedures and cell groups were identified using appropriate cell culture 24-well plates. The cell culture incubator was set at 5% v/v CO2 with temperature and humidity maintained at 36-38° C. and 40-70%, respectively. The test and control substances were administered to HKGS-depleted medium in triplicates. A fixed 5 μL/well from 100× stock dose volume was administered to 500 μL of media to each cell culture well on Day 3 and pre-incubated for 6 hours and then post-UVB incubated for 18 hours. […] CXCL5 levels were quantified by enzyme-linked immunosorbent assay (ELISA) after UV-B irradiation and incubation with test and control materials. CXCL5 levels were assessed from cell culture media supernatants using R&D Systems Human CXCL5/ENA-78 DuoSet ELISA kit (Cat. No. DY254-05) according to the manufacture's specifications. Absorbance was measured at 450 nm using plate reader and cytokine levels were calculated from a standard curve.
# [2] = test system: human 3D skin-like EPIDERM; conditions: 1 h
smiles,measurement,setting,value
"C=C(C)[C@@H]1CCC(C)=C[C@H]1c1c(O)cc(CC2CN(C(=O)OCC)C2)cc1O [KLS-13022, ethyl 3-(3,5-dihydroxy-4-((1R,6R)-3-methyl-6-(prop-1-en-2-yl)cyclohex-2-enyl)benzyl)azetidine-1-carboxylate]",penetration into receptor solution,[1],not into the receptor solution
same,amount in epidermis/dermis (viable skin),"[1]; pig, 24 h, 1 % w/v",0.324%
same,IC50,"IL-6; Fibroblast, light or radiation study, read-out: IC50 of IL-6 inhibition",900 nM
same,maximum IL-6 inhibition,IL-6,95%
same,CXCL5 inhibition,CXCL5,100%
same,IC50,"CXCL5; Homo sapiens, NHEK, light or radiation study, read-out: IC50 of CXCL5 inhibition",50 nM
same,tissue viability,[2],≥ 50%
